In US9765068B2, “PRMT5 inhibitors and uses thereof” (Epizyme, Inc., priority 2012, dated 2017):

The molecules below were run against PRMT5/MEP50 (Homo sapiens (Human), UniProt O14744) (assay: PRMT5 Biochemical Assay (PRMT5/MEP50 enzyme assay on peptide substrate, 3H-SAM Flashplate)). Details: PRMT5/MEP50 4 nM, 3H-SAM 75 nM, peptide 40 nM.
From the text: General Materials. S-adenosylmethionine (SAM), S-adenosylhomocysteine (SAH), bicine, KCl, Tween20, dimethylsulfoxide (DMSO), bovine skin gelatin (BSG), and Tris(2-carboxyethyl)phosphine hydrochloride solution (TCEP) were purchased from Sigma-Aldrich at the highest level of purity possible. ^3H-SAM was purchase from American Radiolabeled Chemicals with a specific activity of 80 Ci/mmol. 384-well streptavidin Flashplates were purchased from PerkinElmer.
Substrates. Peptide representative of human histone H4 residues 1-15 was synthesized with a C-terminal linker-affinity tag motif and a C-terminal amide cap by 21st Century Biochemicals. […] The sequence was Ac-[…][K-Biot]-amide (SEQ ID NO.:3).
Full-length human MEP50 (NM_024102) clone was amplified from a human testis cDNA library incorporating a 5′ sequence encoding a 6-histidine tag (MHHHHHH) (SEQ ID NO.:5) fused directly to Arg 2 of MEP50. The amplified genes were sublconed into pENTR/D/TEV (Life Technologies) and subsequently transferred by Gateway™ attL×attR recombination to pDEST8 baculvirus expression vector (Life Technologies).
Protein Expression. Recombinant baculovirus and Baculovirus-Infected Insect Cells (BIIC) were generated according to Bac-to-Bac kit instructions (Life Technologies) and Wasilko, 2006, respectively. Protein over-expression was accomplished by infecting exponentially growing Spodoptera frugiperda (SF9) cell culture at 1.2×10^6 cell/ml with a 5000 fold dilution of BIIC stock. Infections were carried out at 27° C. for 72 hours, harvested by centrifugation, and stored at −80° C. for purification.
Protein Purification. […] Flag-PRMT5/6His-MeP50 was eluted with 300 mM Imidazole in the same buffer. […] Reference: Wasilko, D. J. and S. E. Lee: “TIPS: titerless infected-cells preservation and scale-up” Bioprocess J., 5 (2006), pp. 29-32.
General Procedure for PRMT5/MEP50 Enzyme Assays on Peptide Substrates.
The assays were all performed in a buffer consisting of 20 mM Bicine (pH=7.6), 1 mM TCEP, 0.005% BSG, and 0.002% Tween20, prepared on the day of use. Compounds in 100% DMSO (1 ul) were spotted into a polypropylene 384-well V-bottom plates (Greiner) using a Platemate Plus outfitted with a 384-channel head (Thermo Scientific). DMSO (1 ul) was added to Columns 11, 12, 23, 24, rows A-H for the maximum signal control and 1 ul of SAH, a known product and inhibitor of PRMT5/MEP50, was added to columns 11, 12, 23, 24, rows I-P for the minimum signal control. A cocktail (40 ul) containing the PRMT5/MEP50 enzyme and the peptide was added by Multidrop Combi (Thermo-Fisher). The compounds were allowed to incubate with PRMT5/MEP50 for 30 min at 25 degrees Celsius, then a cocktail (10 ul) containing ^3H-SAM was added to initiate the reaction (final volume=51 ul). The final concentrations of the components were as follows: PRMT5/MEP50 was 4 nM, ^3H-SAM was 75 nM, peptide was 40 nM, SAH in the minimum signal control wells was 100 uM, and the DMSO concentration was 1%. The assays were stopped by the addition of non-radioactive SAM (10 ul) to a final concentration of 600 uM, which dilutes the ^3H-SAM to a level where its incorporation into the peptide substrate is no longer detectable. 50 ul of the reaction in the 384-well polypropylene plate was then transferred to a 384-well Flashplate and the biotinylated peptides were allowed to bind to the streptavidin surface for at least 1 hour before being washed three times with 0.1% Tween20 in a Biotek ELx405 plate washer. The plates were then read in a PerkinElmer TopCount plate reader to measure the quantity of ^3H-labeled peptide bound to the Flashplate surface, measured as disintegrations per minute (dpm) or alternatively, referred to as counts per minute (cpm).
[formula] Where dpm=disintegrations per minute, cmpd=signal in assay well, and min and max are the respective minimum and maximum signal controls.

Sequence of PRMT5/MEP50 (O14744 other isoform, or with tags, fused parts or gaps): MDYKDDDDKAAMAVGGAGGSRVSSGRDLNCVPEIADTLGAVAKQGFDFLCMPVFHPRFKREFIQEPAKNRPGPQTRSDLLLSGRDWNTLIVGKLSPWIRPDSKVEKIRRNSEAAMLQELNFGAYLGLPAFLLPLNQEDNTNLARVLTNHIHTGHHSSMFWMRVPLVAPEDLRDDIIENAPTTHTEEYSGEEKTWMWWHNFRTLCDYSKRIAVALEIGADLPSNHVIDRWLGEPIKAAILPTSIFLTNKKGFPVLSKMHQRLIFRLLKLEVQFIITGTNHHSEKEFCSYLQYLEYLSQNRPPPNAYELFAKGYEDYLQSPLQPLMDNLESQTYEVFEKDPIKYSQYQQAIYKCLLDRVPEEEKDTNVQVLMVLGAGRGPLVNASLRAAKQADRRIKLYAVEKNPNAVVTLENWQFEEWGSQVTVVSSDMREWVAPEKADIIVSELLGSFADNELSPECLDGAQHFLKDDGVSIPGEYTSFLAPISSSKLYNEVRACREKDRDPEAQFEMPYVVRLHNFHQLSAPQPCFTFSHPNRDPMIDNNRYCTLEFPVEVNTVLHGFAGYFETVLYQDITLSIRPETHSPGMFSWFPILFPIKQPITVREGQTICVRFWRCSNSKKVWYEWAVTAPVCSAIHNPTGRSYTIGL
Sequence of PRMT5/MEP50 (Q9BQA1 other isoform, or with tags, fused parts or gaps partner): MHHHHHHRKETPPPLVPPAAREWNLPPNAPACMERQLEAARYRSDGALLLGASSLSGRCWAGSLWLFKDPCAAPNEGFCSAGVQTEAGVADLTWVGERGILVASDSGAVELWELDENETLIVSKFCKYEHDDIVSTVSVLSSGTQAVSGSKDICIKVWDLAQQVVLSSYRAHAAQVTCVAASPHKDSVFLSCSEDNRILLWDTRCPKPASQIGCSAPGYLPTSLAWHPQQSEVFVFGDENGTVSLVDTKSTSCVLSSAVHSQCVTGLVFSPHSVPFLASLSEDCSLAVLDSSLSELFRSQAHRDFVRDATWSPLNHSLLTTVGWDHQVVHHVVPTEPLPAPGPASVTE

O=C(COc1ccccc1)NCC(O)CN1CCc2ccccc2C1 (centres unmarked) [Compound 1, N-(3-(3,4-dihydroisoquinolin-2(1H)-yl)-2-hydroxypropyl)-2-phenoxyacetamide] and O=C(COc1ccccc1)NC[C@H](O)CN1CCc2ccccc2C1 [Compound 32] fall in the same range of IC50: 101 to 1000 nM for the first, 101 to 1000 nM for the second.

First: O=C(CCc1ccccc1)NCC(O)CN1CCc2ccccc2C1 (centres unmarked) [Compound 2]
Second: O=C(Cc1ccccc1)NC[C@H](O)CN1CCc2ccccc2C1 [Compound 55]
The IC50 of the first is higher: 1000 to 10000 nM for the first, 101 to 1000 nM for the second. The second is the more potent here.

Compared with CN(CC(O)CN1CCc2ccccc2C1)C(=O)CCc1ccccc1 (centres unmarked) [Compound 3], CN(CC(O)CN1CCc2ccccc2C1)C(=O)COc1ccccc1 (centres unmarked) [Compound 5] is higher in IC50: 1000 to 10000 nM for the first, 10000 to 50000 nM for the second. The first is the more potent here.

O=C(COc1cccc(F)c1)NCC(O)CN1CCc2ccccc2C1 (centres unmarked) [Compound 7, N-(3-(3,4-dihydroisoquinolin-2(1H)-yl)-2-hydroxypropyl)-2-(3-fluorophenoxy)acetamide] and N#Cc1cccc(OCC(=O)NCC(O)CN2CCc3ccccc3C2)c1 (centres unmarked) [Compound 8, 2-(3-cyanophenoxy)-N-(3-(3,4-dihydroisoquinolin-2(1H)-yl)-2-hydroxypropyl)acetamide] fall in the same range of IC50: 101 to 1000 nM for the first, 101 to 1000 nM for the second.

Compared with Cc1ccc(OCC(=O)NCC(O)CN2CCc3ccccc3C2)cc1 (centres unmarked) [Compound 9, N-(3-(3,4-dihydroisoquinolin-2(1H)-yl)-2-hydroxypropyl)-2-(p-tolyloxy)acetamide], O=C(COc1ccc(F)cc1)NCC(O)CN1CCc2ccccc2C1 (centres unmarked) [Compound 10] is higher in IC50: 101 to 1000 nM for the first, 1000 to 10000 nM for the second.

N#Cc1ccc(OCC(=O)NCC(O)CN2CCc3ccccc3C2)cc1 (centres unmarked) [Compound 11] and COc1ccc(OCC(=O)NCC(O)CN2CCc3ccccc3C2)cc1 (centres unmarked) [Compound 12, N-(3-(3,4-dihydroisoquinolin-2(1H)-yl)-2-hydroxypropyl)-2-(4-methoxyphenoxy)acetamide] fall in the same range of IC50: 101 to 1000 nM for the first, 101 to 1000 nM for the second.

First: NC(=O)c1ccc(OCC(=O)NCC(O)CN2CCc3ccccc3C2)cc1 (centres unmarked) [Compound 13]
Second: NC(=O)c1cccc(OCC(=O)NCC(O)CN2CCc3ccccc3C2)c1 (centres unmarked) [Compound 34, 3-(2-((3-(3,4-dihydroisoquinolin-2(1H)-yl)-2-hydroxypropyl)amino)-2-oxoethoxy)benzamide]
The IC50 of the first is higher: 1000 to 10000 nM for the first, 101 to 1000 nM for the second. The second is the more potent here.

CS(=O)(=O)c1ccc(OCC(=O)NCC(O)CN2CCc3ccccc3C2)cc1 (centres unmarked) [Compound 14] and NS(=O)(=O)c1ccc(OCC(=O)NCC(O)CN2CCc3ccccc3C2)cc1 (centres unmarked) [Compound 52] fall in the same range of IC50: 1000 to 10000 nM for the first, 1000 to 10000 nM for the second.

Cc1ccccc1OCC(=O)NCC(O)CN1CCc2ccccc2C1 (centres unmarked) [Compound 15, N-(3-(3,4-dihydroisoquinolin-2(1H)-yl)-2-hydroxypropyl)-2-(o-tolyloxy)acetamide] and O=C(COc1ccccc1F)NCC(O)CN1CCc2ccccc2C1 (centres unmarked) [Compound 16] fall in the same range of IC50: 101 to 1000 nM for the first, 101 to 1000 nM for the second.

N#Cc1ccccc1OCC(=O)NCC(O)CN1CCc2ccccc2C1 (centres unmarked) [Compound 17] and NC(=O)c1ccccc1OCC(=O)NCC(O)CN1CCc2ccccc2C1 (centres unmarked) [Compound 29] fall in the same range of IC50: 101 to 1000 nM for the first, 101 to 1000 nM for the second.

First: O=C(CNc1ccccc1)NCC(O)CN1CCc2ccccc2C1 (centres unmarked) [Compound 18]
Second: O=C(Cc1ccccc1)NC[C@@H](O)CN1CCc2ccccc2C1 [Compound 57]
The IC50 of the first is lower: 1000 to 10000 nM for the first, 10000 to 50000 nM for the second.

First: CC(=O)Nc1ccc(OCC(=O)NCC(O)CN2CCc3ccccc3C2)cc1 (centres unmarked) [Compound 21, 2-(4-acetamidophenoxy)-N-(3-(3,4-dihydroisoquinolin-2(1H)-yl)-2-hydroxypropyl)acetamide]
Second: CC(=O)Nc1cccc(OCC(=O)NCC(O)CN2CCc3ccccc3C2)c1 (centres unmarked) [Compound 31, 2-(3-acetamidophenoxy)-N-(3-(3,4-dihydroisoquinolin-2(1H)-yl)-2-hydroxypropyl)acetamide]
The IC50 of the first is lower: 101 to 1000 nM for the first, 1000 to 10000 nM for the second.

Compared with O=C(COC1CCCCC1)NCC(O)CN1CCc2ccccc2C1 (centres unmarked) [Compound 24, 2-(cyclohexyloxy)-N-(3-(3,4-dihydroisoquinolin-2(1H)-yl)-2-hydroxypropyl)acetamide], O=C(CC1CCCCC1)NC[C@H](O)CN1CCc2ccccc2C1 [Compound 56] is higher in IC50: 101 to 1000 nM for the first, 1000 to 10000 nM for the second. The first is the more potent here.

Compared with CC(C)(Oc1ccccc1)C(=O)NCC(O)CN1CCc2ccccc2C1 (centres unmarked) [Compound 25, N-(3-(3,4-dihydroisoquinolin-2(1H)-yl)-2-hydroxypropyl)-2-methyl-2-phenoxypropanamide], O=C(COc1ccccc1)NC[C@@H](O)CN1CCc2ccccc2C1 [Compound 33] is higher in IC50: 101 to 1000 nM for the first, 1000 to 10000 nM for the second.

CN(C)c1ccc(OCC(=O)NCC(O)CN2CCc3ccccc3C2)cc1 (centres unmarked) [Compound 35] and CS(=O)(=O)Nc1ccc(OCC(=O)NCC(O)CN2CCc3ccccc3C2)cc1 (centres unmarked) [Compound 42] fall in the same range of IC50: 101 to 1000 nM for the first, 101 to 1000 nM for the second.

CC(=O)Nc1ccccc1OCC(=O)NCC(O)CN1CCc2ccccc2C1 (centres unmarked) [Compound 36] and CNC(=O)c1ccccc1OCC(=O)NCC(O)CN1CCc2ccccc2C1 (centres unmarked) [Compound 112] fall in the same range of IC50: 101 to 1000 nM for the first, 101 to 1000 nM for the second.

Compared with O=C(COC1CCOCC1)NCC(O)CN1CCc2ccccc2C1 (centres unmarked) [Compound 41], O=C(CC1CCCCC1)NC[C@@H](O)CN1CCc2ccccc2C1 [Compound 58] is higher in IC50: 1000 to 10000 nM for the first, 10000 to 50000 nM for the second. The first is the more potent here.

O=C(COc1cccc2cccnc12)NC[C@H](O)CN1CCc2ccccc2C1 [Compound 44, (S)—N-(3-(3,4-dihydroisoquinolin-2(1H)-yl)-2-hydroxypropyl)-2-(quinolin-8-yloxy)acetamide] and O=C(Cc1cccc2cccnc12)NCC(O)CN1CCc2ccccc2C1 (centres unmarked) [Compound 60, N-(3-(3,4-dihydroisoquinolin-2(1H)-yl)-2-hydroxypropyl)-2-(quinolin-8-yl)acetamide] fall in the same range of IC50: 101 to 1000 nM for the first, 101 to 1000 nM for the second.

Cn1cnc2cc(OCC(=O)NCC(O)CN3CCc4ccccc4C3)ccc21 (centres unmarked) [Compound 46, N-(3-(3,4-dihydroisoquinolin-2(1H)-yl)-2-hydroxypropyl)-2-((1-methyl-1H-benzo[d]imidazol-5-yl)oxy)acetamide] and Cn1cnc2ccc(NCC(=O)NCC(O)CN3CCc4ccccc4C3)cc21 (centres unmarked) [Compound 69] fall in the same range of IC50: 101 to 1000 nM for the first, 101 to 1000 nM for the second.

First: O=C(Cc1ccncc1)NCC(O)CN1CCc2ccccc2C1 (centres unmarked) [Compound 51]
Second: Cn1nccc1-c1cccc(CC(=O)NCC(O)CN2CCc3ccccc3C2)c1 (centres unmarked) [Compound 54, N-(3-(3,4-dihydroisoquinolin-2(1H)-yl)-2-hydroxypropyl)-2-(3-(1-methyl-1H-pyrazol-5-yl)phenyl)acetamide]
The IC50 of the first is higher: 10000 to 50000 nM for the first, 101 to 1000 nM for the second.

Compared with C[C@H](Oc1cccc2cccnc12)C(=O)NC[C@@H](O)CN1CCc2ccccc2C1 [Compound 72], COc1ccc2cccc(OCC(=O)NC[C@H](O)CN3CCc4ccccc4C3)c2n1 [Compound 97] is lower in IC50: 1000 to 10000 nM for the first, 101 to 1000 nM for the second.

First: O=C(COc1ccccc1N1CCOCC1)NC[C@@H](O)CN1CCc2ccccc2C1 [Compound 78]
Second: CN1CCN(c2ccccc2OCC(=O)NC[C@@H](O)CN2CCc3ccccc3C2)CC1 [Compound 85]
The IC50 of the first is lower: 101 to 1000 nM for the first, 1000 to 10000 nM for the second.

Compared with O=C(COc1cccc(C(=O)N2CCOCC2)c1)NCC(O)CN1CCc2ccccc2C1 (centres unmarked) [Compound 83], O=C(COc1ccccc1OCCN1CCOCC1)NC[C@@H](O)CN1CCc2ccccc2C1 [Compound 87] is higher in IC50: 101 to 1000 nM for the first, 1000 to 10000 nM for the second.

CN(C)CCOc1ccccc1OCC(=O)NC[C@@H](O)CN1CCc2ccccc2C1 [Compound 89] and CN(C)C(=O)c1ccccc1OCC(=O)NCC(O)CN1CCc2ccccc2C1 (centres unmarked) [Compound 113] fall in the same range of IC50: 101 to 1000 nM for the first, 101 to 1000 nM for the second.

CN(C)c1ccc2cccc(OCC(=O)NC[C@H](O)CN3CCc4ccccc4C3)c2n1 [Compound 104] and CS(=O)(=O)N1CCN(c2ccccc2OCC(=O)NCC(O)CN2CCc3ccccc3C2)CC1 (centres unmarked) [Compound 106] fall in the same range of IC50: 101 to 1000 nM for the first, 101 to 1000 nM for the second.
